Reference: patent publication US20220364181A1, “METHOD AND A KIT FOR PREDICTING THE SUSCEPTIBILITY TO STIMULATOR OF INTERFERON GENES (STING) AGONISTS IN A CANCER PATIENT” (China Medical University, priority 2021, published 2022)

Assays:
[1] = system: EMT6 cell line; experiment: In vitro assay for susceptibility to STING agonists, ELISA of interferon β, EMT6; assay type: cell-based, mouse; conditions: EMT6 MTAP(−) cells compared with MTAP(+) cells, 100 μg/mL STING agonist, 24 hours
Method: (§1) Two cancer cell lines, the mouse mammary carcinoma cell line EMT6 and the mouse colon adenocarcinoma cell line MC38, were used in the present invention as the models of cell assays.
(§2) These two cancer cell lines were divided into two groups, one group was treated with cell culture medium, and named as MTAP (+); the other group was treated with siRNA of the S-methyl-5′-thioadenosine phosphorylase (MTAP) for gene knock-out, and named as MTAP(−).
In the present invention, two cancer cell lines (EMT6 cell line and MC38 cell line) of MTAP (+) and MTAP (−) were stimulated with STING agonists, and then the expression level of Type I Interferon was measured to determine the activity of the STING agonists. […]
(§3) The cells were harvested, and a portion of the cells was used for enzyme-linked immunosorbent assay (ELISA) to detect the expression level of interferon β (IFN β); the other portion was used for extraction of mRNA with TRizol, and then real-time quantitative reverse transcription polymerase chain reaction (RT-qPCR) was used to amplify its DNA fragments for detecting the gene expression levels of the interferon beta gene (IFNb1) and interferon-stimulated genes MX1 and ISG15.

[2] = system: MC38 cell line; experiment: In vitro assay for susceptibility to STING agonists, ELISA of interferon β, MC38; assay type: cell-based, mouse; conditions: 100 μg/mL STING agonist, 24 hours
Method: as §1, §2
In the present invention, two cancer cell lines (EMT6 cell line and MC38 cell line) of MTAP (+) and MTAP (−) were stimulated with STING agonists, and then the expression level of Type I Interferon was measured to determine the activity of the STING agonists.
The STING agonists used in the present invention included MIW815 and E7766, and two cells were divided into six groups, respectively, the MTAP(+) Control Group, the MTAP(−) Control Group, MTAP(+) MIW815 Group, MTAP(+) E7766 Group, MTAP(−) MIW815 Group and MTAP(−) E7766 Group.
In this assay, after culturing the EMT6 cell line and the MC38 cell line for 12 hours, the medium of the cells in the MTAP(+) STING Group and the MTAP(−) STING Group were replaced with a medium containing 100 μg/mL of STING agonists, and then subjected to stimulation for 24 hours.
as §3

[3] = system: EMT6 cell lines; experiment: Animal experiment, tumor size of mice inoculated with EMT6 cell lines; assay type: in vivo
Method: In the present invention, the EMT6 cell lines with expressed MTAP (MTAP(+) Group) and the EMT6 cell lines with no expressed MTAP (MTAP(−) Group) were inoculated into mice for in vivo assays of the activity of STING agonists.
In this experiment, MIW815 was selected as the STING agonist, and the mice were divided into 4 groups, 5 mice in each group, namely the MTAP(+) Control Group, the MTAP(−) Control Group, the MTAP(+) MIW815 Group and the MTAP(−) MIW815 Group.
Drugs were administered after the cancer cells grew to be more than 100 mm^3. Phosphate buffered saline solution (PBS) was given to the MTAP(+) Control Group and the MTAP(−) Control Group; and 50 μg of STING agonist MIW815 was given to the MTAP(+) MIW815 Group and the MTAP(−) MIW815 Group at Day 9, 12 and 16.

[4] = MC38 MTAP(−) cells compared with MTAP(+) cells

| Structure (SMILES) | expression of interferon β (IFN β), ELISA [1] | expression of interferon β (IFN β), ELISA ([2]; MC38 MTAP(+) cells) | expression of interferon β (IFN β), ELISA [2, 4] | tumor size ([3]; EMT6 MTAP(+) tumors, 50 μg at Day 9, 12 and 16, compared with MTAP(+) Control Group (PBS)) | tumor size ([3]; EMT6 MTAP(−) tumors, 50 μg at Day 9, 12 and 16, compared with MTAP(−) Control Group (PBS)) |
| --- | --- | --- | --- | --- | --- |
| Nc1ncnc2c1ncn2[C@@H]1O[C@@H]2COP(=O)([S-])O[C@@H]3[C@H](O)[C@@H](COP([O-])(=S)O[C@H]2[C@H]1O)O[C@H]3n1cnc2c(N)ncnc21.[Na+].[Na+] (some centres unmarked) [MIW815] | significantly lower | effectively stimulated the expression of IFN 13 | significantly lower | significantly smaller | not statistically different |
| O=[P@]1(S)OC[C@H]2O[C@@H]3[C@H](F)[C@@H]2O[P@](=O)(S)OC[C@H]2O[C@H]([C@H](F)[C@@H]2O1)n1cnc2c(ncnc21)NC/C=C/CNc1ncnc2c1ncn23 [E7766] | significantly lower | effectively stimulated the expression of IFN 13 | significantly lower |  |  |
